Our source for the IC50 values is US10233156B2, “9-membered fused ring derivative” (Shionogi & Co., Ltd., priority 2015, dated 2019).

Some results are limits rather than exact numbers.

Test [1] has as its target recombinant human ACC2 (Homo sapiens (Human), UniProt O00763). Briefly: Measurement of inhibitory activity on human ACC2 (MALDI-TOF MS, conversion of acetyl CoA to malonyl CoA). In kind it is biochemical. The settings on record: recombinant human ACC2, room temperature, 1 to 3 hours. The source says: After a cDNA encoding human ACC2 (27 amino acid residue to 2458 amino acid residues from the N-terminus) was cloned from human kidney cDNA library (Clontech), human ACC2 gene containing His-tag sequence at 5′ terminus was inserted into pFastBac1 (Invitrogen). Recombinant baculovirus was generated using Bac-to-Bac baculovirus expression system (Invitrogen) according to the manufacturer's protocol. To express human ACC2, Sf-9 cells were infected with recombinant baculovirus. After infected cells were disrupted, the filtrated lysate was subjected to Ni-affinity chromatography and anion-exchange chromatography. The fractions containing human ACC2 protein were pooled as recombinant human ACC2 solution.
(§1) Recombinant human ACC1 and recombinant human ACC2, which were prepared by the method mentioned above, were preincubated with assay buffer solution (50 mM HEPES-KOH (pH 7.4), 10 mM magnesium chloride, 6-10 mM potassium citrate, 4 mM reduced form of glutathione, 1.5 mg/ml bovine serum albumin) for one hour. Then, 0.2 μL of each this invention compound solution (in DMSO) were dispensed to 384-well microplate, 5 μL of the preincubated enzyme solution and 5 μL of substrate solution (50 mM HEPES-KOH (pH 7.4), 1 mM ATP, 0.8 mM acetyl CoA and 25-50 mM potassium bicarbonate) were added to microplate. After centrifugation and shaking, the reaction mixtures were incubated in a humidified box at room temperature for 1 to 3 hours. After the incubation, the enzyme reactions were stopped by the addition of EDTA. Then, after the samples were cocrystallized with CHCA (α-cyano-4-hydroxy cinnamic acid) matrices on MALDI target plate, by using the matrix assist laser […] time-of-flight mass spectrometer (MALDI-TOF MS), samples were measured in reflector negative mode. Deprotonated ions of acetyl CoA (AcCoA) of substrate and malonyl CoA (MalCoA) of the reaction product were detected, then, the conversion rates of acetyl CoA to malonyl CoA was calculated by the intensity of [MalCoA-H]−/(Intensity of [MalCoA-H].+Intensity of [AcCoA-H]—) using each signal strength. […] In addition, potassium citrate concentrations in assay buffer solution, potassium hydrogen carbonate concentrations in substrate solution and incubation time were adjusted by each lot of enzyme.

The target of test [2] is recombinant human ACC1 (Homo sapiens (Human), UniProt Q13085). Briefly: Measurement of inhibitory activity on human ACC1 (MALDI-TOF MS, conversion of acetyl CoA to malonyl CoA). The settings on record: recombinant human ACC1, room temperature, 1 to 3 hours. In kind it is biochemical.
From the text: After a cDNA encoding human ACC1 (1 amino acid residue to 2346 amino acid residues from the N-terminus) was cloned from human liver cDNA library (BioChain), human ACC1 gene containing myc-tag and His-tag sequence at 3′ terminus was inserted into pIEXBAC3 (Novagen). Recombinant baculovirus was generated using FlashBACGOLD system (Oxford Expression Technologies) according to the manufacturer's protocol. To express human ACC1, Sf-9 cells were infected with recombinant baculovirus. After infected cells were disrupted, the filtrated lysate was subjected to Ni-affinity chromatography and anion-exchange chromatography. The fractions containing human ACC1 protein were pooled as recombinant human ACC1 solution.
as §1

The IC50 is the point on the concentration scale where inhibition reaches its midpoint.

Sequence of recombinant human ACC2 (O00763 27-2458): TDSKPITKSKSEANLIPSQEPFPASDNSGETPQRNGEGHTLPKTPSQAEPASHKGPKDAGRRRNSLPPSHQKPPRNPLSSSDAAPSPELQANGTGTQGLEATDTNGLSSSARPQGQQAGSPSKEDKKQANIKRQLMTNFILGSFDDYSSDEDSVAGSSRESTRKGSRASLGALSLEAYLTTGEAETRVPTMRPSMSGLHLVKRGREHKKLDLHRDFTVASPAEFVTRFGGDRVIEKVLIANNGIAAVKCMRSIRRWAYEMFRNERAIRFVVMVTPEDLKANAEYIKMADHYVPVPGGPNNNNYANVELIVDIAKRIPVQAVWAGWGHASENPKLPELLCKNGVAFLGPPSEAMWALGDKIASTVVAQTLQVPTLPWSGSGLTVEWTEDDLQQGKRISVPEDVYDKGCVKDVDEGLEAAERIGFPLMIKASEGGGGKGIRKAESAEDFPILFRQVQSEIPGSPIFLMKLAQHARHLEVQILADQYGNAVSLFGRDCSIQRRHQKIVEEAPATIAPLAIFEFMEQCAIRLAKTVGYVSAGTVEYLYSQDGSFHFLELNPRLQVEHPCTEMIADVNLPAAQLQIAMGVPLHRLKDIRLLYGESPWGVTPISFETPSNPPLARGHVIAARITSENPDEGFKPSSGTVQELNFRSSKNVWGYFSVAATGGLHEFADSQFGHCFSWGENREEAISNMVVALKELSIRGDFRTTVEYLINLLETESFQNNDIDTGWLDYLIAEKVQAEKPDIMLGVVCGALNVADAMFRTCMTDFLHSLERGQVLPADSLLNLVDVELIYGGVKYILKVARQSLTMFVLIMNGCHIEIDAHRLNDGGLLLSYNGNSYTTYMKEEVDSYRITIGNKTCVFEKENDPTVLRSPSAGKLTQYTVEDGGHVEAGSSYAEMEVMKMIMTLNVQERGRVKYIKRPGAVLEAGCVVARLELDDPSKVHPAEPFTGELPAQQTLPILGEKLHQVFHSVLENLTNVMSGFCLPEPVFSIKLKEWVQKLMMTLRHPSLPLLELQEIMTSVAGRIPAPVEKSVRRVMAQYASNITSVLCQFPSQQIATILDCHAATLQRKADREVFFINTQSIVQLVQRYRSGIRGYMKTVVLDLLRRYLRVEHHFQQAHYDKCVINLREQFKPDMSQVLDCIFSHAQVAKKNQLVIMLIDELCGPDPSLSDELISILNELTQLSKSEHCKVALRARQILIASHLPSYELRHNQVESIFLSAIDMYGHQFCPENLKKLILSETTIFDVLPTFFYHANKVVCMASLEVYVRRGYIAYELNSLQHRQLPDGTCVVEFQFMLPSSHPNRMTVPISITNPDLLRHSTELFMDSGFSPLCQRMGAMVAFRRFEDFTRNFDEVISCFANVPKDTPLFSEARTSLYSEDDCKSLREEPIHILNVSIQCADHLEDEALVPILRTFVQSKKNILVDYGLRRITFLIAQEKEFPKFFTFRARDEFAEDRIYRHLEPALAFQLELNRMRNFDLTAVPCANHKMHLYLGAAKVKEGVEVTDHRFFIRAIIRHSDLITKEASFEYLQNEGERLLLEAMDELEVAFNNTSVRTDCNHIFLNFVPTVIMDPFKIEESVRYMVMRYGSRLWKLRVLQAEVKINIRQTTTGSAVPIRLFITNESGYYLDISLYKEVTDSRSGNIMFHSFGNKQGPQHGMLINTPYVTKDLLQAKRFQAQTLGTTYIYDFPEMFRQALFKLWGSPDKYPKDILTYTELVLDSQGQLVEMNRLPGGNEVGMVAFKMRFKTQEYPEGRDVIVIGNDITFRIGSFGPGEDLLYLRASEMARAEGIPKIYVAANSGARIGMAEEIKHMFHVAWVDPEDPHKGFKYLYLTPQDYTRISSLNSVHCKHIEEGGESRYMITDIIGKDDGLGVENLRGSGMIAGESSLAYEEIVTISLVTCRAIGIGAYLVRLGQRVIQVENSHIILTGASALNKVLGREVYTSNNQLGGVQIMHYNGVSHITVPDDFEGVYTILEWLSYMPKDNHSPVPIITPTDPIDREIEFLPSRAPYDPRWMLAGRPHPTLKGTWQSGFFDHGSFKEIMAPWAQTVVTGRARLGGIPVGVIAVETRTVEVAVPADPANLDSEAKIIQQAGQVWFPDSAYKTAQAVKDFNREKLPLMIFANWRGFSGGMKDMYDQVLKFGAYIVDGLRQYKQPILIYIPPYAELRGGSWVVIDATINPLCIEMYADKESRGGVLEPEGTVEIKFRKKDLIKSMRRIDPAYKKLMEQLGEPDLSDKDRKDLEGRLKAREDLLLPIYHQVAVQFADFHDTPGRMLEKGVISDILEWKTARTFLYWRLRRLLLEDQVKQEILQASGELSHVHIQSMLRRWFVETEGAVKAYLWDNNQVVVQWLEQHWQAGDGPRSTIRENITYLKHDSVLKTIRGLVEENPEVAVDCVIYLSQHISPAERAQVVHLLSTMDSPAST

For the compound `C[C@@H](CO[C@H]1CC[C@H](Oc2nc3ccc(OC4CC4)cc3n2C)CC1)NC(N)=O` [Example I-197], in test [1], the IC50 was found to be 13 nM.
With `Cn1c(O[C@H]2CC[C@H](OC[C@H](CF)NC(=O)CO)CC2)nc2c(F)cc(OCC(F)F)c(F)c21` [Example I-245], the figures for the IC50 in test [1] and in test [2] were 53 nM and greater than 100 µM, respectively.
Turning to `C[C@@H](CO[C@H]1CC[C@H](Oc2nc3ncc(OC4CC4)cc3n2C)CC1)NC(N)=O` [Example I-204], in test [2], the IC50 was greater than 100 µM.
On to `CC(=O)N[C@@H](C)CO[C@H]1CC[C@H](Oc2nc3c(F)cc(O[C@H]4C[C@@H](O)C4)c(F)c3n2C)CC1` [Example I-246], for which the IC50 in test [1] worked out at 78 nM.
In the case of `C[C@@H](CO[C@H]1CC[C@H](Oc2nc3ccc(OC4CC4)c(F)c3n2C)CC1)NC(N)=O` [Example I-198], the half-maximal inhibitory concentration (IC50) in test [1] came out at 5.3 nM.
Still for that read-out and setting: with `C[C@@H](CO[C@H]1CC[C@H](Oc2nc3cc(F)c(OC4CC4)cc3n2C)CC1)NC(N)=O` [Example I-218] the figure was 120 nM.
With `C[C@@H](CO[C@H]1CC[C@H](Oc2nc3ccc(OC4CC4)nc3n2C)CC1)NC(N)=O` [Example I-240], the IC50 in test [1] worked out at 44 nM.
In the case of `CC(=O)N[C@@H](C)CO[C@H]1CC[C@H](Oc2nc3cc(F)c(Cl)cc3n2C)CC1` [Example I-217], in test [1], the IC50 is 64 nM.
On to `CC(=O)N[C@@H](C)CO[C@H]1CC[C@H](Oc2nc3c(F)cc(OCC(C)(C)C#N)c(F)c3n2C)CC1` [Example I-244], for which the half-inhibitory concentration (IC50) in test [1] is 26 nM.
Take `CC(=O)N[C@@H](CF)CO[C@H]1CC[C@H](Oc2nc3cnc(OC4CC4)c(F)c3n2C)CC1` [Example I-210]: the IC50 in test [1] was 7.2 nM.
Regarding `C[C@@H](CO[C@H]1CC[C@H](Oc2nc3c(F)c(F)c(F)c(F)c3n2C)CC1)NC(N)=O` [Example I-235], in test [1], the IC50 was found to be 43 nM.
With `CC(=O)N[C@@H](C)CO[C@H]1CC[C@H](Oc2nc3ccc(OC4CC4)c(F)c3n2C)CC1` [Example I-247], the IC50 in test [1] was 3.9 nM.
As to `CC(=O)N[C@@H](C)/C=C(\F)[C@@H]1CC[C@@H](Oc2nc3c(F)cc(OCC(F)F)c(F)c3n2C)CO1` [Example I-250], the IC50 in test [1] came out at 21 nM.
Take `CC(=O)N[C@@H](C)C(F)(F)C[C@H]1CC[C@H](Oc2nc3c(F)cc(OCC(F)F)c(F)c3n2C)CO1` [Example I-214]: the IC50 in test [1] is 12 nM.
`CC(=O)N[C@@H](C)CO[C@H]1CC[C@H](Oc2nc3c(C#N)cc(OC4CCC4)c(F)c3n2C)CC1` [Example I-226]: the IC50 in test [1] was determined as 6.1 nM.
As to `CC(=O)N[C@@H](C)CO[C@H]1CC[C@H](Oc2nc3ccc(OC4CC4)nc3n2C)CC1` [Example I-234], in test [1], the IC50 was determined as 13 nM.
Same read-out and setting: with `C[C@@H](CO[C@H]1CC[C@H](Oc2nc3c(Cl)cc(OC4CC4)cc3n2C)CC1)NC(N)=O` [Example I-222] the figure was 17 nM.
Same read-out and setting: with `CC(=O)N[C@@H](C)CO[C@H]1CC[C@H](Oc2nc3cc(F)c(OC4CC4)cc3n2C)CC1` [Example I-212] the figure was 55 nM; with `CC(=O)N[C@@H](C)CO[C@H]1CC[C@H](Oc2nc3c(C#N)cc(OC4CC4)cc3n2C)CC1` [Example I-225], 33 nM.
For the compound `CC(=O)N[C@@H](C)CO[C@H]1CC[C@H](Oc2nc3c(F)cc(OC4CC5(COC5)C4)c(F)c3n2C)CC1` [Example I-216], in test [1], the IC50 was 57 nM.
For the compound `CC(=O)N[C@@H](C)CO[C@H]1CC[C@H](Oc2nc3c(F)cc(OCC(F)F)c(F)c3n2C)CC1` [Example I-208], the IC50 in test [1] turned out to be 8.7 nM.
Turning to `Cn1c(O[C@H]2CC[C@H](OC[C@H](CF)NC(N)=O)CC2)nc2c(F)cc(OCC(F)F)c(F)c21` [Example I-232], in test [1], the IC50 came to 11 nM.
On to `CC(=O)N[C@@H](C)CO[C@H]1CC[C@H](Oc2nc3cc(F)c(F)c(F)c3n2C)CC1` [Example I-215], for which the half-maximal inhibitory concentration (IC50) in test [1] turned out to be 17 nM.
Same read-out and setting: as for `CC(=O)N[C@@H](CF)CO[C@H]1CC[C@H](Oc2nc3c(C#N)cc(OC4CC4)c(F)c3n2C)CC1` [Example I-206], the figure is 12 nM; as for `CC(=O)N[C@@H](C)CO[C@H]1CC[C@H](Oc2nc3ccc(OC4CC4)cc3n2C)CC1` [Example I-221], 9.1 nM; as for `CC(=O)N[C@@H](C)CC[C@H]1OC[C@H](Oc2nc3c(F)cc(OCC(F)F)c(F)c3n2C)CC1(F)F` [Example I-228], 13 nM.
Still for that read-out and setting: as for `CC(=O)N[C@@H](C)CO[C@H]1CC[C@H](Oc2nc3cc(F)c(F)cc3n2C)CC1` [Example I-238], the figure is 83 nM; as for `CC(=O)N[C@@H](C)CO[C@H]1CC[C@H](Oc2nc3cc(F)c(OC4CC4)c(F)c3n2C)CC1` [Example I-207], 5.4 nM; as for `CC(=O)N[C@@H](C)CC[C@H]1OC[C@H](Oc2nc3c(F)cc(OCC(F)F)c(F)c3n2C)C[C@@H]1F` [Example I-196], 10 nM.
As to `CC(=O)N[C@@H](C)CO[C@H]1CC[C@H](Oc2nc3c(F)cc(OC(F)F)c(F)c3n2C)CC1` [Example I-231], the IC50 in test [1] amounted to 10 nM.
`CC(=O)N[C@@H](CF)CO[C@H]1CC[C@H](Oc2nc3c(F)cc(OCC(F)F)c(Cl)c3n2C)CC1` [Example I-205]: the IC50 in test [1] stood at 4.6 nM.
Turning to `Cn1c(O[C@H]2CC[C@H](OC[C@H](CF)NC(=O)CC#N)CC2)nc2c(F)cc(OCC(F)F)c(F)c21` [Example I-227], the IC50 in test [1] worked out at 44 nM.
Same read-out and setting: with `CC(=O)N[C@@H](C)CO[C@H]1CC[C@H](Oc2nc3c(F)c(F)c(OCC(F)F)c(F)c3n2C)CC1` [Example I-209] the figure was 5.3 nM.
The same measure, in the same setting: as for `C[C@@H](CO[C@H]1CC[C@H](Oc2nc3cc(F)c(OC4CC4)c(F)c3n2C)CC1)NC(N)=O` [Example I-241], the figure is 9.5 nM; as for `CC(=O)N[C@@H](C)CO[C@H]1CC[C@H](Oc2nc3ccc(OC4(C)CC4)cc3n2C)CC1` [Example I-202], 17 nM.
For the compound `CC(=O)N[C@@H](C)CO[C@H]1CC[C@H](Cc2nc3c(F)cc(OCC(F)F)c(F)c3n2C)CC1` [Example I-252], the IC50 in test [2] is greater than 100 µM.
For the compound `CC(=O)N[C@@H](C)CO[C@H]1CC[C@H](Oc2nc3c(F)cc(OC4COC4)c(Cl)c3n2C)CC1` [Example I-219], the IC50 in test [1] was 12 nM.
As for `CC(=O)N[C@@H](C)CO[C@H]1CC[C@H](Oc2nc3c(F)cc(OC4(C)COC4)c(F)c3n2C)CC1` [Example I-203], in test [1], the IC50 stood at 110 nM.
Turning to `CC(=O)N[C@@H](CF)CO[C@H]1CC[C@H](Oc2nc3c(F)cc(OC4CC4)cc3n2C)CC1` [Example I-201], the IC50 in test [1] amounted to 4.7 nM.
Take `COC(=O)N[C@@H](CF)CO[C@H]1CC[C@H](Oc2nc3c(F)cc(OCC(F)F)c(F)c3n2C)CC1` [Example I-239]: the IC50 in test [1] stood at 30 nM.
Consider `CC(=O)N[C@@H](C)CO[C@H]1CC[C@H](Oc2nc3cnc(OC4CC4)cc3n2C)CC1` [Example I-224], for which the IC50 in test [1] turned out to be 150 nM.
Take `C[C@@H](CO[C@H]1CC[C@H](Oc2nc3cnc(OC4CC4)c(F)c3n2C)CC1)NC(N)=O` [Example I-237]: the IC50 in test [1] amounted to 12 nM.
As to `CC(=O)N[C@@H](C)CO[C@H]1CC[C@@H](Cc2nc3c(F)cc(OCC(F)F)c(F)c3n2C)CC1` [Example I-251], the IC50 in test [1] stood at 100 nM.
Take `CC(=O)N[C@@H](C)CO[C@H]1CC[C@H](Oc2nc3cc(Cl)c(F)cc3n2C)CC1` [Example I-211]: in test [1], the IC50 is 120 nM.
In the case of `CC(=O)N[C@H](C)C(F)(F)C[C@H]1CC[C@H](Oc2nc3c(F)cc(OCC(F)F)c(F)c3n2C)CO1` [Example I-220], the IC50 in test [1] was found to be 180 nM.
On to `CC(=O)N[C@@H](C)CC[C@H]1OC[C@H](Oc2nc3c(F)cc(OC4CC4)cc3n2C)CO1` [Example I-249], for which the IC50 in test [1] was 6.6 nM.
With `C[C@@H](CO[C@H]1CC[C@H](Oc2nc3cnc(OC4CC4)cc3n2C)CC1)NC(N)=O` [Example I-229], the IC50 in test [1] was 600 nM.
Consider `Cn1c(O[C@H]2CC[C@H](OC[C@H](CF)NC(N)=O)CC2)nc2c(F)cc(OC3CC3)cc21` [Example I-213], for which the IC50 in test [1] turned out to be 8.9 nM.
For `C[C@@H](CO[C@H]1CC[C@H](Oc2nc3c(F)cc(OC4CC4)cc3n2C)CC1)NC(N)=O` [Example I-243], the IC50 in test [1] amounted to 5.6 nM.
As to `CC(=O)N[C@@H](C)CO[C@H]1CC[C@H](Oc2nc3c(F)cc(OCC4(F)COC4)c(F)c3n2C)CC1` [Example I-195], in test [1], the IC50 is 35 nM.
Regarding `CC(=O)N[C@@H](C)CO[C@H]1CC[C@H](Oc2nc3c(F)cc(O[C@H]4C[C@H](O)C4)c(F)c3n2C)CC1` [Example I-223], in test [1], the IC50 was 87 nM.
